# Test results taken from patent US6623933B1 (priority 1999, dated 2003).
# Where two headings read alike, the source gives them in different places.
# Columns and labels:
# GluR1 AMPA receptor = molecular target: T1, GluR1 AMPA receptor (Rattus norvegicus, UniProt P19490); assay: Kainate-induced currents, Xenopus oocytes injected with GluR1 cRNA; type: cell-based; conditions: GluR1; steroid 100 μM; 100 μM kainate; −100 mV
# T1 construct: expressed in transfected cells; host or cells: Xenopus oocytes injected with GluR1 cRNA
# Description: (§1) Plasmids were obtained from the following individuals: Dr. Suzanne Zukin (Albert Einstein College of Medicine, Bronx, N.Y.), NR1100; Dr. Shigetada Nakanishi (Kyoto University Faculty of Medicine, Kyoto, Japan), NR2A; Dr. Stephen Heinemann (Salk Institute, San Diego, Calif.), GluR1 (flop), GluR3 (flop), and GluR6. Plasmids were linearized with BamH1 (NR1100), XhoI (NR2A, GluR1, GluR3) or XbaI (GluR6) prior to in vitro transcription with T3 (GluR1, GluR3, GluR6) or T7 (NR1100, NR2A) RNA polymerase using the Message Machine kit (Ambion, Austin, Tex.). […] RNA solutions (50-70 nl) were injected into oocytes for delivery of NR1100 (5 ng), NR1100:NR2A (1:10 ng), GluR1 (5 ng). GluR3 (5 ng), or GluR6 (20 ng). Oocytes were incubated in ND96 at 18-20° C. for 3-7 days prior to electrophysiological recording.
# (§2) Steroid solutions were prepared as 70-100 mM frozen stocks in dimethyl sulfoxide (DMSO). The final DMSO concentration of all recording solutions was between 0.1% to 0.5% and was constant within an experiment.
# (§3) Perfusion control and data acquisition were carried out using an automated oocyte electrophysiology workstation that was developed for the rapid collection of concentration-response data and real-time waveform analysis (Yaghoubi et al., Soc. Neurosci. Abstr. 20: 1109 (1995)). This system is implemented on a Macintosh IIci computer (Apple Computer, Cupertino, Calif.) equipped with MacA-DIOS II data acquisition and control hardware (GW Instruments, Somerville, Mass.). Drug application is controlled by the computer through a series of valves, using custom-written software based on the SuperScope II development environment, improving the efficiency and reproducibility of data collection. Experiments were carried out using an Axoclamp-2A voltage clamp amplifier (Axon Instruments, Foster City, Calif.) in two-electrode voltage clamp mode. Intracellular microelectrodes (1-3 MΩ) were filled with 3 M KCl. […] Membrane potential was clamped at −60 to −70 mV and stepped to −100 mV at the start of data acquisition unless otherwise stated. […] Current and voltage recordings were digitized at 100 Hz for analysis. GluR6 injected oocytes were treated for 10 min with 10 μg/ml concanavalin A to prevent fast desensitization.
# (§4) Results are expressed as mean±S.E.M. Statistical comparisons were made using Student's t-test.
# GluR3 AMPA receptor = molecular target: T2, GluR3 AMPA receptor (Rattus norvegicus, UniProt P19492); assay: Kainate-induced currents, Xenopus oocytes injected with GluR3 cRNA; type: cell-based; conditions: GluR3; steroid 100 μM; 100 μM kainate; −100 mV
# T2 construct: expressed in transfected cells; host or cells: Xenopus oocytes injected with GluR3 cRNA
# Description: as §1, §2, §3, §4
# GluR6 kainate receptor = molecular target: T3, GluR6 kainate receptor (Rattus norvegicus, UniProt P42260); assay: Kainate-induced currents, Xenopus oocytes injected with GluR6 cRNA; type: cell-based; conditions: GluR6; steroid 100 μM; 10 μM kainate; −100 mV
# T3 construct: expressed in transfected cells; host or cells: Xenopus oocytes injected with GluR6 cRNA (concanavalin A treated)
# Description: as §1, §2, §3, §4
# NR1010/NR2A = NR1010/NR2A (Rattus norvegicus, UniProt P35439+Q00959); set-up: agonist nHill / agonist Emax: dose or concentration left out as unconfirmed; conditions: NR1010/NR2A
# NR1111/NR2A = NR1111/NR2A (Rattus norvegicus, UniProt P35439+Q00959); set-up: agonist Emax: dose or concentration left out as unconfirmed; conditions: NR1111/NR2A
# NR1/NR2B (NR1100) = NR1/NR2B (NR1100) (Rattus norvegicus, UniProt P35439+Q00960)
# Description: (§5) Plasmids containing the NR1100 (NR1G) and NR2A cDNA inserts were kindly provided by Dr. Nakanishi (Kyoto University Faculty of Medicine, Kyoto, Japan). Plasmids containing the NR2B, NR2C and NR2D cDNA inserts were kindly provided by Dr. P. Seeburg (Heidelberg University, Heidelberg, Germany). Plasmids were linearized with appropriate restriction enzyme prior to in vitro transcription using the Message Machine kit (Ambion, Inc., Austin, Tex.).
# (§6) Female, oocyte-positive Xenopus laevis frogs were purchased from Xenopus I (Dexter, Mich.). […] Oocytes were injected with 50 nL of RNA solutions using an electronic microinjector (Drummond Inc., Broomall, Pa.). […] The injected oocytes were used for experiments following 1-5 days of incubation in Barth's solution at 18-20° C.
# (§7) The microelectrodes were fabricated from borosilicate glass capillaries with a programmed puller (Sutter Instrument Co., Calif.). Microelectrode resistance was 1-3 MΩ_when filled with 3 M KCl.
# (§8) Except where otherwise stated, oocytes were clamped at a holding potential of −70 mV during data acquisition. The membrane current was filtered at 500 Hz and sampled at 100 Hz. Drugs were applied using a gravity-driven external perfusion system. The working volume of the recording chamber was 30 μl and the rate of the perfusion was 50 μl/sec. The drug application lasted 10 sec and was followed by 60 s wash. Data acquisition and external perfusion were controlled using custom-written software implemented in the SuperScope II development environment (GW Instruments, Mass.). All experiments were performed at room temperature of 22-24° C. Peak or steady-state current measurements were normalized and expressed as a fraction of the peak or steady-state control current measurements, which were performed before and after application of every single concentration of agonists or steroids.
# (§9) Concentration-response data were analyzed by nonlinear regress ion using the logistic equation Response=Emax/(1+(EC50/c)^nH), where c is concentration, Emaxis the maximum response, nHis the Hill coefficient. The data are presented as mean±SEM. EC50values are averaged as logarithms (De Lean et al., Am. J. Physiol. 235: E97-E102 (1978))±the SEM of the log EC50. […] The pooled data were simultaneously fitted to the logistic equation, either with Emax and EC50 constrained to be identical in the presence and absence of PS, or allowing one or both to vary independently. […] This was regarded as indicating a significant treatment effect of PS, but the change in EC50and Emaxwas not considered significant. […] No attempt was made to test the generally small changes in nHfor statistical significance.
# NR1101/NR2A = NR1101/NR2A (Rattus norvegicus, UniProt P35439+Q00959); set-up: agonist Emax: dose or concentration left out as unconfirmed; conditions: NR1101/NR2A
# NR1/NR2C (NR1100) = NR1/NR2C (NR1100) (Rattus norvegicus, UniProt P35439+Q00961); conditions: NR1/NR2C; for EC50: read-out: agonist EC50
# Description: as §5, §6, §7, §8, §9
# NR1/NR2D (NR1100) = NR1/NR2D (NR1100) (Rattus norvegicus, UniProt P35439+Q62645)
# Description: as §5, §6, §7, §8, §9
# NR1100/NR2A = NR1100/NR2A (Rattus norvegicus, UniProt P35439+Q00959); set-up: agonist nHill / agonist Emax: dose or concentration left out as unconfirmed; conditions: NR1100/NR2A
# NR1/NR2A (NR1100) = NR1/NR2A (NR1100) (Rattus norvegicus, UniProt P35439+Q00959)
# Description: as §5, §6, §7, §8, §9
# NR1011/NR2A = NR1011/NR2A (Rattus norvegicus, UniProt P35439+Q00959); set-up: agonist Emax: dose or concentration left out as unconfirmed; conditions: NR1011/NR2A
# NR1000/NR2A = NR1000/NR2A (Rattus norvegicus, UniProt P35439+Q00959); set-up: agonist Emax: dose or concentration left out as unconfirmed; conditions: NR1000/NR2A
# NR1001/NR2A = NR1001/NR2A (Rattus norvegicus, UniProt P35439+Q00959); set-up: agonist Emax: dose or concentration left out as unconfirmed; conditions: NR1001/NR2A
# NR1/NR2D (NR1100), sequence (Q62645 28-1323, other chains not shown): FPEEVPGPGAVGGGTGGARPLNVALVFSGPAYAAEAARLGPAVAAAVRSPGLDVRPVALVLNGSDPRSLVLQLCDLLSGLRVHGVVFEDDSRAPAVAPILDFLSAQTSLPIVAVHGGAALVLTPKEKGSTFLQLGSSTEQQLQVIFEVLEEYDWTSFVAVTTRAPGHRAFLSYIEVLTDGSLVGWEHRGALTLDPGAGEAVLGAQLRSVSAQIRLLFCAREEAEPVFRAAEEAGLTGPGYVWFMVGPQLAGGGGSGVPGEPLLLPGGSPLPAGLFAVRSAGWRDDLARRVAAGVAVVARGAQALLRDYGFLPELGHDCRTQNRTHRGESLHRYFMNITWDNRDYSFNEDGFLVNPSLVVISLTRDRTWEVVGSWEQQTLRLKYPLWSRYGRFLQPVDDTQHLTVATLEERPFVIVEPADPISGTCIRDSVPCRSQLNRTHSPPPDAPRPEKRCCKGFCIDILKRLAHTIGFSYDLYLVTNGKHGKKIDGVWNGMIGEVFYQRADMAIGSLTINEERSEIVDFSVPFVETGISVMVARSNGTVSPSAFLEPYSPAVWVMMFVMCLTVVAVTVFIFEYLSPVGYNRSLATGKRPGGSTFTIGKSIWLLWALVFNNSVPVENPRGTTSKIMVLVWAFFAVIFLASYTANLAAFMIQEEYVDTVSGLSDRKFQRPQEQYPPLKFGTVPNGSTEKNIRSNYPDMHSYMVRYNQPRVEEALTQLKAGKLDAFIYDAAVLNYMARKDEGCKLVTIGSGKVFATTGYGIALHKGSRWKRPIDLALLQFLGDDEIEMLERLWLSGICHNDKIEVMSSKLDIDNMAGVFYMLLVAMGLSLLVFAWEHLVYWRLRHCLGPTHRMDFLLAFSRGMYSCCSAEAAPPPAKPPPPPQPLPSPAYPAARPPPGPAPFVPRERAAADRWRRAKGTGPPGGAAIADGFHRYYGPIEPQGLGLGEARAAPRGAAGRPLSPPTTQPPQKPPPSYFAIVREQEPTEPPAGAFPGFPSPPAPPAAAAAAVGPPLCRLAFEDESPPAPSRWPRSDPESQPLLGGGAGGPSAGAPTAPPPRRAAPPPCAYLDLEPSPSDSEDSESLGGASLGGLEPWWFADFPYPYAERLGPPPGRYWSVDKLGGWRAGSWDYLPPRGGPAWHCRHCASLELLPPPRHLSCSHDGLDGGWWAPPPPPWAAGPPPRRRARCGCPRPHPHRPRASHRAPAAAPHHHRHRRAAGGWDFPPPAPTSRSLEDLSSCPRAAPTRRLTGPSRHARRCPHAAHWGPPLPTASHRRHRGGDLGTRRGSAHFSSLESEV
# NR1/NR2A (NR1100), sequence (Q00959 23-1464, other chains not shown): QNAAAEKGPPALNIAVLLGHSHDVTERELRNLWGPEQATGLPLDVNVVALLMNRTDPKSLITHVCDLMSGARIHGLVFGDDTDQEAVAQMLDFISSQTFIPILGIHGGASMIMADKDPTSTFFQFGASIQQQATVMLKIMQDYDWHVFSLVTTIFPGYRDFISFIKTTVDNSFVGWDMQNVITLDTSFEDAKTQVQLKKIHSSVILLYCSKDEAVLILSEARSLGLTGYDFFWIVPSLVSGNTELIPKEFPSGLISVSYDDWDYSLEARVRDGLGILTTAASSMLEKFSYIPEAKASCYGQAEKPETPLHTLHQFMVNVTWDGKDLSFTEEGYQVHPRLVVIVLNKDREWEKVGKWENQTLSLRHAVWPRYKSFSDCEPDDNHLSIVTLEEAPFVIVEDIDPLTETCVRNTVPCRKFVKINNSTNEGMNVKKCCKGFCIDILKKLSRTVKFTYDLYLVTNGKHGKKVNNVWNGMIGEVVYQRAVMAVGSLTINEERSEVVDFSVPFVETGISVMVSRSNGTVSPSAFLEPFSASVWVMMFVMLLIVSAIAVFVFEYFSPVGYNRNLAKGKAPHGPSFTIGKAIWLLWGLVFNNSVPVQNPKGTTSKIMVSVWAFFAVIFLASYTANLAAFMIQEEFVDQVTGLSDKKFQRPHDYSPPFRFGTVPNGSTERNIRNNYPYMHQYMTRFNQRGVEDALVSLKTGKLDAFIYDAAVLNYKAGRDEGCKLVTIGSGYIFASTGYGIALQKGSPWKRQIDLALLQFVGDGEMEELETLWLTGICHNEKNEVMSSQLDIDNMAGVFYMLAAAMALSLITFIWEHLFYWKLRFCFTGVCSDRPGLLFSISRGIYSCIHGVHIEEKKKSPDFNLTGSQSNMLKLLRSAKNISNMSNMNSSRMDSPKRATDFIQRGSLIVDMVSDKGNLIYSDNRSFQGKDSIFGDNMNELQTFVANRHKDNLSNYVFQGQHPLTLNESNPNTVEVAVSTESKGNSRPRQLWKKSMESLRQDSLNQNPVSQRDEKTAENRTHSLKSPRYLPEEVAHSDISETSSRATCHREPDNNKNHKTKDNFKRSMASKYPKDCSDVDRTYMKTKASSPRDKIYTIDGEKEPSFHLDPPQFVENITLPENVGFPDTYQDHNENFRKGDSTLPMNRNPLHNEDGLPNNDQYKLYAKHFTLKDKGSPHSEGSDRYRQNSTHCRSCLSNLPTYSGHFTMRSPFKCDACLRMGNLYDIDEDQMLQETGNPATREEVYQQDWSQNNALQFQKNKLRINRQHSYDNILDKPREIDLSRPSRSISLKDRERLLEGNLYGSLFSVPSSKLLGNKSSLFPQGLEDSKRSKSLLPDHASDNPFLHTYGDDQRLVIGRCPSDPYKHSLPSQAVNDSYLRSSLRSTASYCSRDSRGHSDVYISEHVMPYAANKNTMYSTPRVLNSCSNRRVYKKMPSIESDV
# NR1100/NR2A, sequence (Q00959 23-1464, other chains not shown): as above
# T2 sequence (P19492 23-888): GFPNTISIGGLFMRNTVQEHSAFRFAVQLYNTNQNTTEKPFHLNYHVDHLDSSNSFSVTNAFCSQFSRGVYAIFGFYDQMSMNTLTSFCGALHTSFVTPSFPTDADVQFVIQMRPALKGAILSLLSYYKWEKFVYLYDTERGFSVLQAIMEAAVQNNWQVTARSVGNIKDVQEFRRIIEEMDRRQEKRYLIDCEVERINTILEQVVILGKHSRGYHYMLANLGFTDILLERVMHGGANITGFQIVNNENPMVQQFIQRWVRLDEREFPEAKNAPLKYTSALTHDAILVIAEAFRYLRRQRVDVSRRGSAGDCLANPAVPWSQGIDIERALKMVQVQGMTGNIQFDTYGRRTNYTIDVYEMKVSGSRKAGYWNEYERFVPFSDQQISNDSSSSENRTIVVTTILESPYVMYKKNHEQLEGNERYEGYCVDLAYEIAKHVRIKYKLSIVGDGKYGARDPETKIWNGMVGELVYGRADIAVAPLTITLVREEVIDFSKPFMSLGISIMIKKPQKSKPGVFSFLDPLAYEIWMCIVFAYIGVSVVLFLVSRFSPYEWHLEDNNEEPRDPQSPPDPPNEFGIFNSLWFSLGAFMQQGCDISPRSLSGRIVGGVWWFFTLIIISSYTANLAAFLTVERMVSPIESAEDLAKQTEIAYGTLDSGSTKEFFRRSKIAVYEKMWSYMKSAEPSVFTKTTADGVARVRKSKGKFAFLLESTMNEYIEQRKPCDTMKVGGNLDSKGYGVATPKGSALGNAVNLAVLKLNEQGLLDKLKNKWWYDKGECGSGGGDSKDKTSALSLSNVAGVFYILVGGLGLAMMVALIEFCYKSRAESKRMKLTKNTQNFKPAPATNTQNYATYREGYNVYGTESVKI
Structure (SMILES),Percentage change in kainate response (GluR1 AMPA receptor),Percentage change in kainate response (GluR3 AMPA receptor),Percentage change in kainate response (GluR6 kainate receptor),agonist Emax (NR1010/NR2A; absence of PS),agonist nHill (NR1010/NR2A; presence of PS),agonist Emax (NR1111/NR2A; absence of PS),agonist Emax (NR1111/NR2A; presence of PS),agonist Emax (NR1/NR2B (NR1100); +100 μM PS),agonist nH (NR1/NR2B (NR1100); no PS),agonist Emax (NR1101/NR2A; absence of PS),agonist Emax (NR1101/NR2A; presence of PS),agonist Emax (NR1/NR2C (NR1100); +100 μM PS),agonist Emax (NR1/NR2D (NR1100); +100 μM PS),agonist Emax (NR1/NR2D (NR1100); no PS),agonist Emax (NR1100/NR2A; absence of PS),agonist Emax (NR1100/NR2A; presence),agonist nHill (NR1100/NR2A; presence),agonist Emax (NR1/NR2A (NR1100); +100 μM PS),agonist nH (NR1/NR2A (NR1100); +100 μM PS),agonist Emax (NR1011/NR2A; presence of PS),also measured
C[C@]12CC[C@@H]3c4ccc(OS(=O)(=O)O)cc4CC[C@H]3[C@@H]1CC[C@H]2O [17α-Estradiol-3-sulfate],−22 ± 3(3) %,−17 ± 2(3) %,−7 ± 1(5) %,–,–,–,–,–,–,–,–,–,–,–,–,–,–,–,–,–,–
N[C@@H](CCC(=O)O)C(=O)O [L-glutamate],–,–,–,1.48 ± 0.03,1.59 ± 0.15,1.87 ± 0.12,2.62 ± 0.27,1.34 ± 0.07,1.14 ± 0.10,1.77 ± 0.09,2.72 ± 0.07,0.87,0.80,1.10 ± 0.03,1.50 ± 0.04,2.30 ± 0.21,0.98 ± 0.06,2.3 ± 0.2,0.98 ± 0.06,2.08 ± 0.21,"agonist nHill (NR1010/NR2A; absence of PS): 1.32 ± 0.14; agonist nHill (NR1111/NR2A; absence of PS): 1.39 ± 0.02; agonist Emax (NR1/NR2B (NR1100); no PS): 1.23 ± 0.04; agonist Emax (NR1/NR2C (NR1100); no PS): 1.31 ± 0.02; EC50 (NR1/NR2C (NR1100); +100 μM PS): 60 nM; EC50 (NR1/NR2C (NR1100); no PS): 75 nM; EC50 (NR1/NR2D (NR1100); read-out: agonist EC50, +100 μM PS): 37 nM; EC50 (NR1/NR2D (NR1100); read-out: agonist EC50, no PS): 25 nM; agonist nHill (NR1100/NR2A; absence of PS): 1.15 ± 0.04; agonist nH (NR1/NR2A (NR1100); no PS): 1.15 ± 0.04; agonist Emax (NR1/NR2A (NR1100); no PS, normalized to 200 μM NMDA plus 10 μM glycine): 1.50; agonist Emax (NR1011/NR2A; absence of PS): 1.59 ± 0.03; agonist Emax (NR1000/NR2A; absence of PS): 1.75 ± 0.02; agonist Emax (NR1000/NR2A; presence of PS): 2.92 ± 0.03; agonist Emax (NR1001/NR2A; absence of PS): 2.10 ± 0.12; agonist nHill (NR1001/NR2A; presence of 100 mM PS): 1.57 ± 0.18; agonist Emax (NR1001/NR2A; presence of PS): 2.85 ± .26"
NCC(=O)O [glycine],–,–,–,1.51 ± 0.07,1.38 ± 0.10,1.93 ± 0.07,2.68 ± 0.16,1.63 ± 0.04,1.09 ± 0.04,1.63 ± 0.04,2.46 ± 0.23,0.87,0.74,1.22 ± 0.05,1.52 ± 0.07,2.34 ± 0.09,1.03 ± 0.05,2.34,1.03 ± 0.05,2.24 ± 0.29,agonist Emax (NR1010/NR2A; presence of PS): 1.92 ± 0.19; agonist nH (NR1/NR2B (NR1100); +100 μM PS): 1.15 ± 0.03; agonist nH (NR1/NR2C (NR1100); +100 μM PS): 1.11 ± 0.12; agonist nH (NR1/NR2D (NR1100); +100 μM PS): 0.95 ± 0.01; agonist Emax (NR1000/NR2A; absence of PS): 1.48 ± 0.04; agonist nHill (NR1000/NR2A; absence of PS): 0.90 ± 0.01; agonist Emax (NR1000/NR2A; presence of PS): 2.88 ± 0.27; agonist Emax (NR1001/NR2A; absence of PS): 1.89 ± 0.20; agonist Emax (NR1001/NR2A; presence of PS): 2.77 ± 0.40
C[C@]12CC[C@H](O)CC1=CC[C@@H]1[C@@H]2CC[C@]2(C)C(=O)CC[C@@H]12 [Dehydroepiandrosterone],−16 ± 3(3) %,−7 ± 5(3) %,−5 ± 1(3) %,–,–,–,–,–,–,–,–,–,–,–,–,–,–,–,–,–,–
